Measured values: ChEMBL document CHEMBL1149979, “1,3-Dithian-2-ylidene and thiazolidin-2-ylidene derivatives as a novel class of antimycotic agents” (1997)
Values after ≈ are worked out from the molar mass of the structure shown.

Key:
Aspergillus fumigatus = assay: In vitro minimum inhibitory concentration for antifungal activity against human pathogenic fungi Aspergillus fumigatus; type: functional
Candida albicans = assay: In vitro minimum inhibitory concentration for antifungal activity against human pathogenic fungi Candida albicans; type: functional
Cryptococcus neoformans = assay: In vitro minimum inhibitory concentration for antifungal activity against human pathogenic fungi Cryptococcus neoformans; type: functional
Sporothrix schenckii = assay: In vitro minimum inhibitory concentration for antifungal activity against human pathogenic fungi Sporothrix schenck ii; type: functional
Trichophyton benhamiae = assay: In vitro minimum inhibitory concentration for antifungal activity against human pathogenic fungi Trichophyton mentagrophytes; type: functional, Arthroderma benhamiae

MIC (Aspergillus fumigatus) [µg/mL] | MIC (Candida albicans) [µg/mL] | MIC (Cryptococcus neoformans) [µg/mL] | MIC (Sporothrix schenckii) [µg/mL] | MIC (Trichophyton benhamiae) [µg/mL] | SMILES
0.19 (≈ 0.8 µM) | 50 (≈ 211 µM) | > 100 | > 100 | 3.12 (≈ 13.1 µM) | CC1CCS/C(=C(/C#N)n2ccnc2)S1 (stereo not given)
12.5 (≈ 56.5 µM) | > 100 | > 100 | > 100 | 12.5 (≈ 56.5 µM) | CC1=CS/C(=C(/C#N)n2ccnc2)S1
3.1 (≈ 13.9 µM) | 100 (≈ 448 µM) | > 100 | > 100 | 25 (≈ 112 µM) | N#CC(=C1SCCCS1)n1ccnc1
50 (≈ 176 µM) | > 100 | > 100 | > 100 | 25 (≈ 87.9 µM) | CCOC(=O)/C(=C1/SCCC(C)S1)n1ccnc1 (stereo not given)

The next lines start with the compound.

SMILES | MIC (Aspergillus fumigatus) [µg/mL] | MIC (Candida albicans) [µg/mL] | MIC (Cryptococcus neoformans) [µg/mL] | MIC (Sporothrix schenckii) [µg/mL] | MIC (Trichophyton benhamiae) [µg/mL]
O=C(/C(=C1/SCCN1c1ccccc1)n1ccnc1)c1ccc(Cl)cc1 | > 100 | > 100 | > 100 | > 100 | > 100
O=C(/C(=C1/SCCN1c1ccc(Cl)cc1)n1ccnc1)c1ccc(Cl)cc1 | > 100 | > 100 | > 100 | > 100 | > 100
CC1CCS/C(=C(/C#N)n2cnc3ccccc32)S1 (stereo not given) | 50 (≈ 174 µM) | > 100 | > 100 | > 100 | > 100
CC(=O)N1CCN(c2ccc(OC[C@H]3CO[C@](Cn4ccnc4)(c4ccc(Cl)cc4Cl)O3)cc2)CC1 [KETOCONAZOLE] | 0.7 (≈ 1.32 µM) | 0.1 (≈ 0.188 µM) | 0.3 (≈ 0.565 µM) | 0.1 (≈ 0.188 µM) | 25 (≈ 47 µM)
CCOC(=O)C(=C1SCCCS1)n1ccnc1 | > 100 | > 100 | > 100 | > 100 | > 100
CCN1/C(=C(\C#N)n2ccnc2)SCC1C (stereo not given) | 25 (≈ 107 µM) | > 100 | > 100 | > 100 | 50 (≈ 213 µM)
CCN1CCS/C1=C(/C#N)n1ccnc1 | 25 (≈ 113 µM) | > 100 | > 100 | > 100 | 25 (≈ 113 µM)
O=C(C(=C1SCCCS1)n1ccnc1)c1ccc(Cl)cc1 | 12.5 (≈ 37.1 µM) | > 100 | > 100 | > 100 | 12.5 (≈ 37.1 µM)
